According to ChEMBL document CHEMBL1201862, “PubChem BioAssay data set” (2004):
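Test compounds were applied to cells in 96-well plates for 48 hours at 5 doses. Abbreviation: GI50, concentration required for 50% inhibition of growth.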 The source made the active and inactive calls. No stated cut-off is given here; in the data, active = GI50 up to about 1.1 µM and inactive = higher.

Legend:
Assay in all cases: NCI anticancer screen, dose series, 48 h
[1] = system: ACHN
[2] = system: CAKI-1
[3] = system: EKVX
[4] = system: HOP-62
[5] = system: HT-29
[6] = system: SF-539
[7] = system: CCRF-CEM
[8] = system: SK-MEL-2
[9] = system: 786-0
[10] = system: IGROV-1
[11] = system: UACC-257
[12] = system: M19-MEL
[13] = system: LXFL 529
[14] = system: XF498
[15] = system: SW-620
[16] = system: SR
[17] = system: HCT-15
[18] = system: RXF 393
[19] = system: K562
[20] = system: Malme-3M
[21] = system: A498
[22] = system: SK-MEL-5
[23] = system: NCI-H23
[24] = system: NCI-H522
[25] = system: DMS-273
[26] = system: HCT-116
[27] = system: U-251
[28] = system: UACC-62
[29] = system: KM12
[30] = system: HOP-92
[31] = system: SF-295
[32] = system: COLO 205
[33] = system: OVCAR-3
[34] = system: OVCAR-4
[35] = system: LOX IMVI
[36] = system: SNB-75
[37] = system: TK-10
[38] = system: OVCAR-8
[39] = system: HL-60
[40] = system: DLD-1
[41] = system: SF-268
[42] = system: MOLT-4
[43] = system: SNB-78
[44] = system: SK-OV-3
[45] = system: SN12C
[46] = system: DMS-114
[47] = system: NCI-H460
[48] = system: RXF 631
[49] = system: M14
[50] = system: SK-MEL-28
[51] = system: HCC 2998
[52] = system: A549
[53] = system: KM-20L2
[54] = system: OVCAR-5
[55] = system: NCI-H226
[56] = system: HOP-18
[57] = system: SNB-19
[58] = system: UO-31

## Cc1cccc(/C=N/N=C(\N)NO)n1
[1]
  GI50: 27.3 µM (inactive)
[2]
  GI50: 20.8 µM (inactive)
[3]
  GI50: 37.3 µM (inactive)
[4]
  GI50: 17.1 µM (inactive)
[5]
  GI50: 48.4 µM (inactive)
[6]
  GI50: 26.7 µM (inactive)
[7]
  GI50: 42.5 µM (inactive)
[8]
  GI50: 50 µM (inactive)
[9]
  GI50: 36.8 µM (inactive)
[10]
  GI50: 7.26 µM (inactive)
[11]
  GI50: > 100 µM (inactive)
[12]
  GI50: 68.7 µM (inactive)
[13]
  GI50: 6.52 µM (inactive)
[14]
  GI50: 39.4 µM (inactive)
[15]
  GI50: 74.5 µM (inactive)
[16]
  GI50: 42.4 µM (inactive)
[17]
  GI50: > 10 µM
[18]
  GI50: > 100 µM (inactive)
[19]
  GI50: 33.5 µM (inactive)
[20]
  GI50: > 100 µM (inactive)
[21]
  GI50: > 100 µM (inactive)
[22]
  GI50: 27.5 µM (inactive)
[23]
  GI50: > 100 µM (inactive)
[24]
  GI50: 37.8 µM (inactive)
[25]
  GI50: 35.7 µM (inactive)
[26]
  GI50: > 100 µM (inactive)
[27]
  GI50: 78.7 µM (inactive)
[28]
  GI50: 2.12 µM (inactive)
[29]
  GI50: 14.4 µM (inactive)
[30]
  GI50: 26.1 µM (inactive)
[31]
  GI50: 22.8 µM (inactive)
[32]
  GI50: > 100 µM (inactive)
[33]
  GI50: > 100 µM (inactive)
[34]
  GI50: 28.2 µM (inactive)
[35]
  GI50: 5.73 µM (inactive)
[36]
  GI50: 20.5 µM (inactive)
[37]
  GI50: > 100 µM (inactive)
[38]
  GI50: 58.7 µM (inactive)
[39]
  GI50: 32.4 µM (inactive)
[40]
  GI50: 18.7 µM (inactive)
[41]
  GI50: 16.1 µM (inactive)
[42]
  GI50: 51.4 µM (inactive)
[43]
  GI50: > 100 µM (inactive)
[44]
  GI50: 19.9 µM (inactive)
[45]
  GI50: > 100 µM (inactive)
[46]
  GI50: 12.1 µM (inactive)
[47]
  GI50: 26.9 µM (inactive)
[48]
  GI50: > 100 µM (inactive)
[49]
  GI50: 41.5 µM (inactive)
[50]
  GI50: > 100 µM (inactive)
[51]
  GI50: 83.8 µM (inactive)
[52]
  GI50: 13.4 µM (inactive)

## O=C(CCCC(=O)Nc1ccc(Cl)cc1Cl)CC(=O)c1ccc2ccccc2c1
[1]
  GI50: > 100 µM (inactive)
[53]
  GI50: > 100 µM (inactive)
[2]
  GI50: > 100 µM (inactive)
[3]
  GI50: > 100 µM (inactive)
[4]
  GI50: > 100 µM (inactive)
[5]
  GI50: > 100 µM (inactive)
[6]
  GI50: > 100 µM (inactive)
[7]
  GI50: > 100 µM (inactive)
[8]
  GI50: > 100 µM (inactive)
[9]
  GI50: > 100 µM (inactive)
[10]
  GI50: > 100 µM (inactive)
[11]
  GI50: > 100 µM (inactive)
[54]
  GI50: > 100 µM (inactive)
[12]
  GI50: > 100 µM (inactive)
[13]
  GI50: > 100 µM (inactive)
[15]
  GI50: > 100 µM (inactive)
[17]
  GI50: > 100 µM
[18]
  GI50: 10.8 µM (inactive)
[19]
  GI50: > 100 µM (inactive)
[20]
  GI50: > 100 µM (inactive)
[55]
  GI50: > 100 µM (inactive)
[22]
  GI50: > 100 µM (inactive)
[23]
  GI50: > 100 µM (inactive)
[56]
  GI50: > 100 µM (inactive)
[25]
  GI50: > 100 µM (inactive)
[26]
  GI50: > 100 µM (inactive)
[27]
  GI50: > 100 µM (inactive)
[28]
  GI50: > 100 µM (inactive)
[29]
  GI50: > 100 µM (inactive)
[30]
  GI50: 96.6 µM (inactive)
[31]
  GI50: > 100 µM (inactive)
[32]
  GI50: > 100 µM (inactive)
[33]
  GI50: > 100 µM (inactive)
[34]
  GI50: > 100 µM (inactive)
[35]
  GI50: > 100 µM (inactive)
[37]
  GI50: > 100 µM (inactive)
[38]
  GI50: > 100 µM (inactive)
[57]
  GI50: > 100 µM (inactive)
[39]
  GI50: > 100 µM (inactive)
[58]
  GI50: > 100 µM (inactive)
[40]
  GI50: > 100 µM (inactive)
[41]
  GI50: > 100 µM (inactive)
[42]
  GI50: > 100 µM (inactive)
[43]
  GI50: > 100 µM (inactive)
[44]
  GI50: > 100 µM (inactive)
[45]
  GI50: > 100 µM (inactive)
[46]
  GI50: > 100 µM (inactive)
[47]
  GI50: > 100 µM (inactive)
[48]
  GI50: > 100 µM (inactive)
[49]
  GI50: > 100 µM (inactive)
[50]
  GI50: > 100 µM (inactive)
[51]
  GI50: > 100 µM (inactive)
[52]
  GI50: > 100 µM (inactive)
